In article PMC10813298, “Evidence of Guanidines Potential against Leishmania (Viannia) braziliensis: Exploring In Vitro Effectiveness, Toxicities and of Innate Immunity Response Effects” (Biomolecules, 2023):

How the values were obtained:
[1] = test system: IL-12; test: Cytokine production in supernatant of infected macrophages (ELISA), IL-12; type: cell-based, murine; conditions: supernatant of RAW 264.7 macrophages infected with L. (V.) braziliensis
Source text: (§1) To assess the production of cytokines TNF-α and IL-12 (associated with Th1 response), as well as IL-10 and IL-6 (associated with Th2 response), in the supernatants of the macrophage infection assay, the sandwich enzyme-linked immunosorbent assay (ELISA) method was employed, following the manufacturer’s instructions (eBioscience^TM, San Diego, CA, USA). Initially, capture antibodies specific to TNF-α, IL-6, IL-10, and IL-12 were sensitized in ELISA plates (NUNC-ImmunoTM, Sigma-Aldrich, St. Louis, MO, USA). The plates were incubated at 4 °C for 18 h. After the incubation period, all wells were washed with a solution containing 0.05% PBS and Tween 20 (Sigma-Aldrich, St. Louis, MO, USA). A blocking solution containing 10% FBS in PBS was added to the wells and incubated for 1 h. Subsequently, the wells were washed again. The supernatant obtained from the macrophage infection assay was added to the respective wells. Known concentrations of recombinant cytokines (TNF-α, IL-10, IL-6, and IL-12) were also added to the plate in parallel, covering a range from high to low concentrations. The plates were maintained at 4 °C for another 18 h. […] The absorbance was measured in a plate reader at a wavelength of 450 nm. The concentration of cytokines (TNF-α, IL-10, IL-6, and IL-12) in the supernatants was determined by interpolation from the standard curve.

[2] = test system: IL-10; test: Cytokine production in supernatant of infected macrophages (ELISA), IL-10; type: cell-based, murine; conditions: supernatant of RAW 264.7 macrophages infected with L. (V.) braziliensis
Source text: as §1

[3] = test system: aorta; test: Vasodilator effect on aortic rings (KCl contraction); conditions: Cavia porcellus; guinea pig aortic rings
Experimental: (§2) Guinea pigs of either sex weighing between 250 or 380 g were utilized in this study. The animals were housed in a controlled environment in an air-conditioned room, maintaining a temperature of 22 to 24 °C and a relative humidity of 50% to 60%. A 12 h light–dark cycle was maintained.
(§3) On the day of the experiments, the animals were euthanized via cervical dislocation. The heart, aorta, pulmonary artery, and ileum were surgically removed and immersed in Krebs–Henseleit solution, with the following composition: NaCl 144.9 mM, KCl 4.73 mM, CaCl2 3.2 mM, MgSO4 1.18 mM, NaHCO3 24.9 mM, KH2PO4 1.18 mM, and glucose 10 mM, with the pH maintained at 7.2–7.4. This solution was continuously aerated with a mixture of 95% O2 and 5% CO2.
Papillary muscles were isolated from the right ventricle of the heart and meticulously cleared of Purkinje fibers to prevent spontaneous activity. To ensure adequate oxygen supply, only muscles with a diameter less than 0.87 mm were used. The right atrium was also dissected for assessment of chronotropic activity. […]
(§4) Following a 30 min control period, different concentrations of test compounds were cumulatively added to the bath solution every 45 min until a stable effect was achieved. The responses were recorded using a chart recorder (BD 112 Dual Channel, Kipp &Zonen, PO Box 507, 2624 BC, Delft, Holland) for subsequent evaluation. […]

[4] = test system: pulmonary artery; test: Vasodilator effect on pulmonary artery rings (KCl contraction); conditions: guinea pig pulmonary artery rings
Experimental: as §2, §3
Papillary muscles were isolated from the right ventricle of the heart and meticulously cleared of Purkinje fibers to prevent spontaneous activity. To ensure adequate oxygen supply, only muscles with a diameter less than 0.87 mm were used. The right atrium was also dissected for assessment of chronotropic activity. Both the aorta and pulmonary artery were cleaned and cut into 5 mm rings, while the ileum was sectioned into pieces measuring 1 to 2 cm.
One end of the dissected tissues was securely tied with silver wire for attachment to a tissue holder, while the other end was connected to a force transducer (Transbridge™, 4-Channel Transducer Amplifier, World Precision Instruments, Sarasota, FL, USA). For contractile measurements, the terminal ileum was stimulated with 60 mM KCl, and the pulmonary artery and aorta rings were exposed to a 90 mM KCl solution. […]
as §4

[5] = test system: Leishmania (Leishmania) amazonensis; design: method as in PMID 36551331; conditions: BALB/c-L. (L.) amazonensis, 0.13 mg/kg/day; cited from earlier work
[6] = test system: LmCPB2.8ΔCTE; design: method as in PMID 36551331; conditions: previous findings; cited from earlier work

EC50 [3] [µM]	EC50 ([4]; Cavia porcellus) [µM]	arteria pulmonalis ring contraction force [4]	SMILES	IL-12 level [1]	IL-10 level [2]	reduction in the parasite load [5] [%]	inhibition of the enzyme LmCPB2.8ΔCTE [6] [%]
			O=C(/N=C(/NCc1ccccc1)Nc1ccc([N+](=O)[O-])cc1)c1ccccc1 [LQOF-G1, (Z)-N-benzoyl-N-benzyl-N-(4-nitrophenyl)guanidine]	increased	decreased		
16	48	decrease	O=C(/N=C(/NCc1ccccc1)Nc1ccc(Br)cc1)c1ccccc1 [LQOF-G2, (Z)-N-benzoyl-N-benzyl-N-(4-bromophenyl)guanidine]		decreased	46	
			CC(C)(C)c1ccc(N/C(=N\C(=O)c2ccccc2)NCc2ccccc2)cc1 [LQOF-G6, (Z)-N-benzoyl-N-benzyl-N-(4-tert-butylphenyl)guanidine]				73
